Where “and” joins values, the source holds several entries; their conditions need not be identical. Identical values can stand only once.
What was measured:
[1] = molecular target: T1, 5-hydroxytryptamine receptor 1A (Rattus norvegicus, UniProt P19327)
T1 sequence (P19327 whole entry): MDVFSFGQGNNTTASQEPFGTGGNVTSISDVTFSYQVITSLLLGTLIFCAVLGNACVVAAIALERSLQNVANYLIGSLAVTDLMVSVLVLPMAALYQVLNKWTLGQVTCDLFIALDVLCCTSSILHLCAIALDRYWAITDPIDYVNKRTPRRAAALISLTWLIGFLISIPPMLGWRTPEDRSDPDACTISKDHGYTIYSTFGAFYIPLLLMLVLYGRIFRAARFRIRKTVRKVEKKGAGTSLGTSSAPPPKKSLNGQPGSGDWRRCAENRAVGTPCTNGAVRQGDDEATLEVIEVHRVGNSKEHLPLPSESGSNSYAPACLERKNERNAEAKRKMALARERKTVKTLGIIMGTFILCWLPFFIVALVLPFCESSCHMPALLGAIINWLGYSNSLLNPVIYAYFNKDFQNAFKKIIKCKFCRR

[2] = molecular target: 5-hydroxytryptamine receptor 1B (Cavia porcellus, UniProt O08892)
Chain of 5-hydroxytryptamine receptor 1B (O08892 whole entry): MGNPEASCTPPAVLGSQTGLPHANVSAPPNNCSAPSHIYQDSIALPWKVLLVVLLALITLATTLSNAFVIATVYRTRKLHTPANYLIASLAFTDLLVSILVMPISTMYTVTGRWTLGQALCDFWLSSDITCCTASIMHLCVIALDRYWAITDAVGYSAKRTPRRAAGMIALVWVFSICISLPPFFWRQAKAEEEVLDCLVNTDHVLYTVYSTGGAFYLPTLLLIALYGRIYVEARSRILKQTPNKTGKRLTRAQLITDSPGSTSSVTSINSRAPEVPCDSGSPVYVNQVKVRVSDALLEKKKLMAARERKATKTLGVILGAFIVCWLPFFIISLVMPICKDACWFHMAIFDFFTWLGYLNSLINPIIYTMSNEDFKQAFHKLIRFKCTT

[3] = molecular target: D(2) dopamine receptor (Rattus norvegicus, UniProt P61169)
Chain of D(2) dopamine receptor (P61169 whole entry): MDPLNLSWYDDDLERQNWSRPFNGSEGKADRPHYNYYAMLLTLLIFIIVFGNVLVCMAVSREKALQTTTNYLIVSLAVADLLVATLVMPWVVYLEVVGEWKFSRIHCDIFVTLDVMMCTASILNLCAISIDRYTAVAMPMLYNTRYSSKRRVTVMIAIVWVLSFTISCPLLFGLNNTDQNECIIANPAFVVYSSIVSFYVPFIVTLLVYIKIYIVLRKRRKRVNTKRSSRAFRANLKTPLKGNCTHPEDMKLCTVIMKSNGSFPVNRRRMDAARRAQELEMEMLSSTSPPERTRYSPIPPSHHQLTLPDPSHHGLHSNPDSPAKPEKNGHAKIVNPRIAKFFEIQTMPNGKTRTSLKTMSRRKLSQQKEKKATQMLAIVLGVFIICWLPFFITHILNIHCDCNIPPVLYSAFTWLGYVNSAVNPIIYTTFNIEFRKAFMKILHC

[4] = molecular target: T2, Alpha-2C adrenergic receptor (Rattus norvegicus, UniProt P22086)
T2 sequence (P22086 whole entry): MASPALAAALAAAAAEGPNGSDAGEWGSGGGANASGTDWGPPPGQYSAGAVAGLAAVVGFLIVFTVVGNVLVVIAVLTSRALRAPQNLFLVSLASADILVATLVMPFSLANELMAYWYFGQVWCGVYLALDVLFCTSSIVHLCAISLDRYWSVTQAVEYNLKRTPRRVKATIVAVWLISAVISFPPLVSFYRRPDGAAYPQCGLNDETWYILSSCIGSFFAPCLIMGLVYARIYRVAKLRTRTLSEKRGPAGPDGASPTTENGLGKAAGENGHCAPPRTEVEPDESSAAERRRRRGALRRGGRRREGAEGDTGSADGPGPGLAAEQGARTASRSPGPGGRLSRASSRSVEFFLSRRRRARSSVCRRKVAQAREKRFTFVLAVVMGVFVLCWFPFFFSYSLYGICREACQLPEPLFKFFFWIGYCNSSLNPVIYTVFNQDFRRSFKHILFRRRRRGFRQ

[5] = molecular target: T3, Alpha-1A adrenergic receptor (Rattus norvegicus, UniProt P43140)
T3 sequence (P43140 whole entry): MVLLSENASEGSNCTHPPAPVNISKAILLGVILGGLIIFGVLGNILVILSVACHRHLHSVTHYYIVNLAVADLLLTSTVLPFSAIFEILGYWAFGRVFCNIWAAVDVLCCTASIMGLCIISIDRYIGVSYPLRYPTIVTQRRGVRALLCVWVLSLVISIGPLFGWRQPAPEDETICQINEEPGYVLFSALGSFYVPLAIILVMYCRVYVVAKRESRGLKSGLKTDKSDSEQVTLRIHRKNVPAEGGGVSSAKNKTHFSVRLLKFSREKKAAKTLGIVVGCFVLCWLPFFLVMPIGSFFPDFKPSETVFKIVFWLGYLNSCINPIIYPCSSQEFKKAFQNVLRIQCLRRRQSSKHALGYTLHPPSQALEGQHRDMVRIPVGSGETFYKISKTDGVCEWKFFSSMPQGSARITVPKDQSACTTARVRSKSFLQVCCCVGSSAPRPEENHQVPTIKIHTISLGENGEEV

[6] = molecular target: 5-hydroxytryptamine receptor 2A (Rattus norvegicus, UniProt P14842)
Chain of 5-hydroxytryptamine receptor 2A (P14842 whole entry): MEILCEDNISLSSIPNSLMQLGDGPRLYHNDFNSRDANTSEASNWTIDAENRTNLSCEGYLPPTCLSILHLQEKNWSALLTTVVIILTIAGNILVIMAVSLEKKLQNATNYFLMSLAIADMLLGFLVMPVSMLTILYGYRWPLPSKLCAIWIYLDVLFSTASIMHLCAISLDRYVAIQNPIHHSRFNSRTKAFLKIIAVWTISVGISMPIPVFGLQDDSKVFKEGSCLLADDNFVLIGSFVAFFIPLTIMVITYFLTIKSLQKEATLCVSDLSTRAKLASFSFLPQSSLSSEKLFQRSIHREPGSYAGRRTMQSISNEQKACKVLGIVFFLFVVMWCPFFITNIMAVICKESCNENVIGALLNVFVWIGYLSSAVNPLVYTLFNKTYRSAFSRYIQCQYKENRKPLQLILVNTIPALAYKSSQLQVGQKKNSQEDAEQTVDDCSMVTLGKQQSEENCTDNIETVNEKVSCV

[7] = molecular target: T4, 5-hydroxytryptamine receptor 2C (Homo sapiens, UniProt P28335)
T4 sequence (P28335 whole entry): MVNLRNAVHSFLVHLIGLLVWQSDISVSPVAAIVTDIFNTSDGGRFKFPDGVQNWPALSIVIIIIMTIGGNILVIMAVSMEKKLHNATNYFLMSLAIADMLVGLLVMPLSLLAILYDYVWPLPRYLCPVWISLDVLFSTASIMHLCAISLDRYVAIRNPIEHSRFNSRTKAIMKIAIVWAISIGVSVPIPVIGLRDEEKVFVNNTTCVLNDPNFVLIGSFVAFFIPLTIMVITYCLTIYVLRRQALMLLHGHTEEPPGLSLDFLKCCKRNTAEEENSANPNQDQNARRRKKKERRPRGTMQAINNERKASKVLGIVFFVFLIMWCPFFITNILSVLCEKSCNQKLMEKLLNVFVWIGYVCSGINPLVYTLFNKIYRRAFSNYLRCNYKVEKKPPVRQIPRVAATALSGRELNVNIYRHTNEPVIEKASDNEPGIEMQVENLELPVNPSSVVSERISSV

[8] = molecular target: T5, Alpha-2A adrenergic receptor (Homo sapiens, UniProt P08913)
T5 sequence (P08913 whole entry): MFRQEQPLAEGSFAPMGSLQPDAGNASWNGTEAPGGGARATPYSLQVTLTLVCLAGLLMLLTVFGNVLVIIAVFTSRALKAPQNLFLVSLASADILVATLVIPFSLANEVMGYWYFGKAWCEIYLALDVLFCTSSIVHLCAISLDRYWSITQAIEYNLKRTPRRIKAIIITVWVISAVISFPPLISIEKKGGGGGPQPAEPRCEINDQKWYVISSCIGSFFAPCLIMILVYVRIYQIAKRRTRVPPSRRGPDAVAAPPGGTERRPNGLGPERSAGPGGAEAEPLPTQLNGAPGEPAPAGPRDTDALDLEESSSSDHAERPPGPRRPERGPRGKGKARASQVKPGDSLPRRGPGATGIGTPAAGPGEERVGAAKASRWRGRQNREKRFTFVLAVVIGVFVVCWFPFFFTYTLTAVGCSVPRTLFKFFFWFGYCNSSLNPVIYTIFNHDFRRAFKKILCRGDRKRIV

With Fc1cccc2c1OC1CNCC1O2 (stereo not drawn) [CAS_105182-45-4] the Ki [1] was 631 nM, the Ki [2] was 1000 nM and the Ki [3] was 3160 nM. It also gave a Ki [4] of 0.5 nM, a Ki [5] of 794 nM and a Ki [6] of 1000 nM. The Ki [7] was 1000 nM and the Ki [8] was 7.94 nM and 6.3 nM.

From BindingDB's records for doi:10.1002/(SICI)1098-2396(200002)35:2<79::AID-SYN1>3.0.CO;2-X (Institut De Recherches Servier, 2000)
